Experimental data taken from the CheMixHub viscosity set.

Test: xn = mol fraction of the nth substance listed

O=C1CCCC1 + CCOC(=O)OCC
viscosity [mPa·s], 101 kPa
Settings | x2 = 0.0876 | x2 = 0.1356 | x2 = 0.2458 | x2 = 0.3359 | x2 = 0.4228 | x2 = 0.5415 | x2 = 0.6475 | x2 = 0.7513 | x2 = 0.8664 | x2 = 0.9352
303.15 K | 0.958 | 0.937 | 0.891 | 0.859 | 0.83 | 0.797 | 0.77 | 0.747 | 0.725 | 0.713
308.15 K | 0.893 | 0.873 | 0.833 | 0.803 | 0.776 | 0.745 | 0.722 | 0.701 | 0.681 | 0.668
313.15 K | 0.835 | 0.819 | 0.783 | 0.757 | 0.733 | 0.705 | 0.683 | 0.664 | 0.644 | 0.632

CC(CCO)CC(C)(C)C (centres undefined) + CCOC(C)=O
viscosity [mPa·s], 101.33 kPa
Settings | x2 = 0.1539 | x2 = 0.2904 | x2 = 0.4122 | x2 = 0.5219 | x2 = 0.6208 | x2 = 0.7106 | x2 = 0.7925 | x2 = 0.8677 | x2 = 0.9364
298.15 K | 5.471 | 3.367 | 2.072 | 1.443 | 1.075 | 0.879 | 0.672 | 0.514 | 0.486
303.15 K | 4.696 | 2.968 | 1.837 | 1.305 | 0.975 | 0.789 | 0.631 | 0.526 | 0.475
308.15 K | 4.016 | 2.452 | 1.646 | 1.181 | 0.934 | 0.724 | 0.586 | 0.495 | 0.439

CC(O)CO (centres undefined) + CCOC(C)=O
viscosity [mPa·s], 101.3 kPa
Settings | x2 = 0.0929 | x2 = 0.1906 | x2 = 0.2984 | x2 = 0.4082 | x2 = 0.5085 | x2 = 0.6062 | x2 = 0.7032 | x2 = 0.7968 | x2 = 0.8998
298.15 K | 20.11 | 10.09 | 5.084 | 2.919 | 1.869 | 1.238 | 0.8932 | 0.6933 | 0.5327
303.15 K | 15.92 | 8.28 | 4.306 | 2.516 | 1.663 | 1.115 | 0.8175 | 0.6419 | 0.5008
308.15 K | 12.64 | 6.743 | 3.661 | 2.193 | 1.47 | 1.011 | 0.7525 | 0.5957 | 0.4714
313.15 K | 10.17 | 5.587 | 3.146 | 1.924 | 1.313 | 0.9178 | 0.6971 | 0.5565 | 0.4442
318.15 K | 8.35 | 4.705 | 2.729 | 1.705 | 1.177 | 0.8394 | 0.6418 | 0.5191 | 0.4197
323.15 K | 6.893 | 4.021 | 2.377 | 1.514 | 1.072 | 0.7691 | 0.5964 | 0.4882 | 0.3962

ClC=C(Cl)Cl + CCOCCO
viscosity [mPa·s], 101.33 kPa
Settings | x1 = 0.1191 | x1 = 0.2226 | x1 = 0.3214 | x1 = 0.4322 | x1 = 0.5234 | x1 = 0.6128 | x1 = 0.7066 | x1 = 0.8105 | x1 = 0.9057
303.15 K | 1.453 | 1.286 | 1.134 | 0.976 | 0.865 | 0.769 | 0.687 | 0.614 | 0.557
313.15 K | 1.166 | 1.052 | 0.946 | 0.829 | 0.747 | 0.676 | 0.612 | 0.555 | 0.511

CC(O)CO (centres undefined) + CN1CCCC1=O
101.33 kPa
Settings | viscosity [mPa·s]
298.15 K, x2 = 0.03556 | 37.57
298.15 K, x2 = 0.09927 | 27.77
298.15 K, x2 = 0.195 | 18.05
298.15 K, x2 = 0.3013 | 11.78
298.15 K, x2 = 0.4032 | 8.207
298.15 K, x2 = 0.5025 | 5.965
298.15 K, x2 = 0.5936 | 4.558
298.15 K, x2 = 0.6967 | 3.452
298.15 K, x2 = 0.7994 | 2.682
298.15 K, x2 = 0.9144 | 2.042
298.15 K, x2 = 0.942 | 1.918
308.15 K, x2 = 0.05805 | 19.68
308.15 K, x2 = 0.1023 | 16.23
308.15 K, x2 = 0.1977 | 11.09
308.15 K, x2 = 0.2949 | 8.059
308.15 K, x2 = 0.407 | 5.667
308.15 K, x2 = 0.5051 | 4.3
308.15 K, x2 = 0.5903 | 3.441
308.15 K, x2 = 0.7066 | 2.66
308.15 K, x2 = 0.7992 | 2.172
308.15 K, x2 = 0.8842 | 1.81
308.15 K, x2 = 0.9388 | 1.623
318.15 K, x2 = 0.05313 | 12.45
318.15 K, x2 = 0.1009 | 10.51
318.15 K, x2 = 0.1905 | 7.664
318.15 K, x2 = 0.2992 | 5.559
318.15 K, x2 = 0.4025 | 4.21
318.15 K, x2 = 0.5017 | 3.319
318.15 K, x2 = 0.5999 | 2.697
318.15 K, x2 = 0.6946 | 2.204
318.15 K, x2 = 0.7967 | 1.805
318.15 K, x2 = 0.8916 | 1.507
318.15 K, x2 = 0.9393 | 1.378

O=C1CCCC1 + CN(C)c1ccccc1
viscosity [mPa·s], 101 kPa
Settings | 303.15 K | 308.15 K
x2 = 0.0705 | 1.022 | 0.948
x2 = 0.1321 | 1.04 | 0.964
x2 = 0.2014 | 1.062 | 0.981
x2 = 0.2754 | 1.083 | 0.997
x2 = 0.3412 | 1.101 | 1.011
x2 = 0.4012 | 1.114 | 1.023
x2 = 0.4825 | 1.13 | 1.039
x2 = 0.5612 | 1.143 | 1.053
x2 = 0.6405 | 1.153 | 1.066
x2 = 0.7025 | 1.158 | 1.076
x2 = 0.7758 | 1.164 | 1.087
x2 = 0.8512 | 1.168 | 1.096
x2 = 0.9215 | 1.169 | 1.104

O=C1CCCC1 + CNC=O
viscosity [mPa·s], 101 kPa
Settings | x2 = 0.0865 | x2 = 0.1756 | x2 = 0.2675 | x2 = 0.3623 | x2 = 0.4601 | x2 = 0.5611 | x2 = 0.6654 | x2 = 0.7732 | x2 = 0.8847
303.15 K | 1.041 | 1.104 | 1.165 | 1.226 | 1.293 | 1.355 | 1.412 | 1.467 | 1.532
308.15 K | 0.9797 | 1.035 | 1.09 | 1.144 | 1.204 | 1.258 | 1.309 | 1.358 | 1.414
313.15 K | 0.9075 | 0.9589 | 1.01 | 1.059 | 1.114 | 1.164 | 1.21 | 1.255 | 1.307
318.15 K | 0.8512 | 0.8981 | 0.9442 | 0.9895 | 1.039 | 1.085 | 1.127 | 1.167 | 1.215
